From PubChem BioAssay (NCI) come the findings set out here.

“And” between values parts separate entries of the source, which are not always exact repeats. Equal values may be shown once.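 Step 1: Grow cells in 96-well plates. Step 2: Expose to compound for 48 hours at 5 concentrations. Step 3: Interpolate endpoints linearly; if unreached, use highest concentration. Here, GI50 denotes the concentration required for 50% inhibition of growth. TGI denotes the concentration required for complete inhibition of growth.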

This assay concerns MDA-MB-468 breast. Briefly: growth of human tumour cells (NCI), 48 h.
For `Cn1cc(-c2csc(-c3c[nH]c4ncccc34)n2)c2cc(Br)cnc21`, the GI50 is 0.812 µM and the TGI worked out at 56.7 µM.

With `Fc1ccc(-c2nc(-c3nc4ccc(Cl)cc4[nH]3)cc3c2[nH]c2ccccc23)cc1`, the GI50 was 2.43 µM and the TGI was found to be 11.5 µM.

Regarding `C=C1C(=O)O[C@@H]2C[C@@H](C)/C=C\C(=O)[C@](C)(OC(C)=O)C[C@H](OC(=O)/C(C)=C\C)[C@@H]12`, the GI50 was 1.01 µM and the TGI worked out at 5.08 µM.

In the case of `Cc1cccc(CN(C)c2ccc(CO)c(Cl)c2)c1`, the GI50 is 0.0572 µM and the TGI amounted to 0.176 µM.

Take `O=C1C2=C(C(=O)c3c(O)ccc(O)c31)N(c1ccc(N3CCOCC3)nc1)Cc1ccccc1O2`: the GI50 was 0.217 µM and the TGI came to 0.516 µM.

Regarding `O=C1NC(=NCc2cccs2)SC1Cc1ccc2ncccc2c1` (centres undefined), the GI50 is 11.8 µM and the TGI was over 25 µM.

`COc1cc(CNC(=O)/C=C/C=C/c2ccc3c(c2)OCO3)ccc1OCc1cn(-c2ccc(Cl)c(Cl)c2)nn1`: the GI50 is 0.788 µM and the TGI was 2.46 µM.

Regarding `COc1cc(/C=C/C(=O)C(=Cc2ccc(F)c(F)c2)C(=O)/C=C/c2ccc(O)c(OC)c2)ccc1O`, the GI50 was 1.7 µM and the TGI was determined as 3.47 µM.

As for `CN(C)CC(C(=O)c1ccccc1)c1ccccc1` (centres undefined), the GI50 was 0.95 µM and the TGI came to 2.63 µM.

As to `O=C(Nc1cccc(Cl)c1)Nc1cccc(Cl)c1`, the GI50 is 0.0456 µM and the TGI turned out to be 43.6 µM.

For the compound `C=CCN1C(=O)/C(=c2\sc3n(c2=O)C2C(NN=3)N(CC)C(=O)N2CC)c2ccccc21` (centres undefined), the GI50 was 0.293 µM and the TGI turned out to be 3.75 µM.

With `O=C1Cc2cc(CCn3ccnc3)c(Cl)cc2N1`, the GI50 was 2.74 µM and the TGI stood at 11.3 µM.

On to `CC/C(=N\Nc1nc2ccccc2n1C)c1ccccn1`, for which the GI50 is 0.0284 µM and the TGI was found to be 0.207 µM.

On to `N/C(=N\O)c1ncc(-c2ccc(C(F)(F)F)cc2)c(NC2CCCCCC2)n1`, for which the GI50 was 8.27 µM and 3.63 µM; the TGI amounted to 17.9 µM.

As to `C=C1CC[C@@H]2C(C)(C)[C@@H](O)CC[C@@]2(C)[C@@H]1COc1ccc2ccc(=O)oc2c1`, the GI50 was 6.36 µM and the TGI came to 25.9 µM.

Regarding `CCCNc1nc(N(C)O)nc(N(C)O)n1`, the GI50 is 2.75 µM and the TGI was over 70.7 µM.

For the compound `N#Cc1ccc(Oc2nccc(-c3c(-c4ccc(F)cc4)ncn3C3CCNCC3)n2)cc1`, the GI50 was 5.91 µM and the TGI is over 25 µM.

As for `Cc1ccc(/C=C(\C#N)n2nnc3cc(Cl)c(Cl)cc32)cc1`, the GI50 was 2.4 µM and the TGI turned out to be 6.65 µM.

Take `CSc1ccc2c(c1)c(CCN)c(C)n2Cc1ccc(Cl)c(Cl)c1`: the GI50 was 1.78 µM and the TGI turned out to be 3.47 µM.

Consider `O=S(=O)(NCCNc1nccc(-c2c(-c3cccc(O)c3)nc3sccn23)n1)c1ccc(F)cc1`, for which the GI50 was 2.62 µM and the TGI was 24.2 µM.

As for `O=C(CCCn1c2c(sc3ncccc32)c(=O)n2nnc(-c3ccccc3)c12)NCCc1cnc[nH]1`, the GI50 is 8.06 µM and the TGI is 27.4 µM.

Consider `CCCCCCN(CCCCCC)CCCNc1nccc2ccccc12`, for which the GI50 was 1.34 µM and the TGI stood at 2.91 µM.

Regarding `COc1cc2c(cc1OC)C(CCc1ccc(Cl)cc1)N(C)CC2` (centres undefined), the GI50 is 16.3 µM and the TGI was determined as 38.1 µM.

As for `CCN1CCC[C@H]1c1cc(O)c2c(c1OC)C[C@H]1C[C@H]3[C@H](N)C(=O)C(C(N)=O)=C(O)[C@@]3(O)C(=O)C1=C2O`, the GI50 is 0.0446 µM and the TGI was found to be 0.717 µM.

In the case of `CCCc1cc(=O)oc2c(C(=O)CC(C)C)c(O)c(CC=C(C)C)c(O)c12`, the GI50 was 3.72 µM and the TGI was determined as 27 µM.

Turning to `Oc1nc(NCCc2ccccc2)sc1/C=C1\C=Nc2ncccc21`, the GI50 was 1.51 µM and 2.05 µM; the TGI is 3.6 µM and 6.37 µM.

For `COc1ccc(CN2c3ccccc3Sc3ccccc32)cc1F`, the GI50 is 0.309 µM and the TGI was found to be 53.4 µM.

For `CCOc1ccc(Cc2nccc3cc(OCC)c(OCC)cc23)cc1OCC`, the GI50 is 2.29 µM and the TGI was found to be 18.3 µM.

`CC(C)=CC/C=C(/C)[C@H]1CC[C@]2(C)[C@@H]1CC[C@@H]1[C@@]3(C)CCC(=O)NC(C)(C)[C@@H]3CC[C@]12C`: the GI50 was 16.5 µM and the TGI was determined as 34.2 µM.

Regarding `c1cncc(CNc2ccccc2-c2nnc(Nc3ccc4c(c3)OCO4)o2)c1`, the GI50 was 0.153 µM and the TGI is over 100 µM.

Take `CCNC(=O)Oc1ccc(/C(=C(/C)c2ccccc2)c2ccc(OCCN3CCCCCC3)cc2)cc1`: the GI50 is 2.06 µM and the TGI was 5.63 µM.

With `O=C1NC(=NCC(CO)c2ccccc2)S/C1=C\c1ccc2ncccc2c1` (centres undefined), the GI50 was 8.8 µM and the TGI is over 25 µM.

As for `Nc1nc(N)c2cc(CNc3ccc(Cl)c(Cl)c3)ccc2n1`, the GI50 was 0.903 µM and the TGI is 2.19 µM.

`CCc1nn2c(C)cc(C)nc2c1Cc1ccc(/C=C/CN2CCN(CCOCCOCCN3CCN(C/C=C/c4ccc(Cc5c(CC)nn6c(C)cc(C)nc56)cc4)CC3)CC2)cc1`: the GI50 is 1.79 µM and the TGI turned out to be 3.81 µM.

For the compound `COC(=O)[C@]12CC[C@@H](C)[C@H](C)[C@@H]1C1=CC[C@@H]3[C@@]4(C)C[C@@H](OC(=O)c5ccco5)[C@H](O)[C@@](C)(CO)[C@@H]4[C@H](O)C[C@@]3(C)[C@]1(C)CC2`, the GI50 was 2.34 µM and the TGI was found to be 6.54 µM.

As to `CCN1CCN(CCOc2ccc(CNc3ccc4nc(CCC5CCCCC5)[nH]c4c3)cc2)CC1`, the GI50 was 1.67 µM and the TGI is 4.11 µM.

As for `O=C(N[C@H](c1ccc(Cl)c(Cl)c1)C1CNC1)c1ccc2cnccc2c1`, the GI50 is 1.85 µM and the TGI is 10.4 µM.
